We go through 15 molecules from PubChem BioAssay (NCI).

Each structure is given as a SMILES string.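 Values below derive from 48-hour exposures of cells grown in 96-well plates, with endpoints linearly interpolated between the two concentrations bracketing the appropriate inhibition level. TGI: concentration producing complete growth inhibition.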 A value given as a limit tells only on which side of the number the result lay.

Holding throughout (experiment): DTP human tumour cell line panel, 48 h
The test system of assay [1] is K-562 leukemia.
The test system of assay [2] is LOX IMVI melanoma.
The test system of assay [3] is MDA-MB-435.
Assay [4] concerns MOLT-4 leukemia.
The test system of assay [5] is NCI-H522 lung.
In assay [6] the test system is OVCAR-3 ovarian.
The test system of assay [7] is RXF 393 renal.
Assay [8] deals with SK-MEL-28 melanoma.
Assay [9] deals with UACC-257 melanoma.
For assay [10], the system named is SK-OV-3 ovarian.
For assay [11], the system named is T-47D breast.

What is called TGI is the concentration giving total growth inhibition.

For the molecule `CN(C)Cc1cc(C(=O)/C=C/c2ccccc2Cl)cc(CN(C)C)c1O`, the concentration for total growth inhibition (TGI) in assay [1] was 24.3 µM; in assay [2], 13.5 µM; in [3], 26.3 µM; in assay [4], 59.8 µM; in assay [5] it was 18 µM; in assay [6], 30.5 µM. Further, the TGI was determined as 41.7 µM in [7], 27.9 µM in assay [8] and 30.1 µM in assay [9].
`Nc1ccc(N=Nc2ccccc2)cc1`: the TGI in assay [1] was greater than 100 µM; in [2], greater than 100 µM; in assay [3] it was greater than 100 µM; in [4], greater than 100 µM; in [6], 69.1 µM; in assay [7], greater than 100 µM. Besides, the TGI in assay [8], in assay [10] and in [9] was greater than 100 µM each time.
As for `Cc1ccn2c(=O)cc(-c3ccccc3)nc2c1`, the TGI in assay [1], in [4], in [5], in assay [6], in assay [7] and in assay [8] was greater than 100 µM each time. Besides, the TGI in [10], in assay [11] and in [9] was greater than 100 µM each time.
Turning to `c1cc2nnnn2nc1N1CCCC1`, the TGI in assay [1], in [2], in assay [3], in assay [4], in [7] and in assay [8] was greater than 100 µM each time. Also, the TGI in assay [10] and in [9] was greater than 100 µM throughout.
As to `COc1cc(Nc2c3ccccc3nc3ccccc23)ccc1NS(C)(=O)=O`, the TGI is greater than 100 µM in assay [1]; greater than 100 µM in assay [2]; greater than 100 µM in [4]; 12.9 µM in assay [5]; 20.4 µM in [8]; 30.8 µM in assay [10]. Also, in [9], the TGI was found to be 24.2 µM.
For the molecule `Cc1cc(C2(O)C=C(C(C)(C)C)C(=O)C(C(C)(C)C)=C2)c(C)cc1C1(O)C=C(C(C)(C)C)C(=O)C(C(C)(C)C)=C1`, the TGI in [1], in [2], in [4], in assay [5], in assay [8] and in assay [10] was greater than 100 µM in each case. Further, the TGI in assay [11] and in assay [9] was greater than 100 µM throughout.
For the molecule `O=C1c2ccccc2CCCCCCCCCCC12OCCCO2`, the TGI was greater than 100 µM in assay [1]; 84.8 µM in assay [2]; 43.8 µM in [4]; 67.2 µM in assay [5]; greater than 100 µM in [6]; 33.7 µM in assay [7]. For the same molecule, the TGI was greater than 100 µM in assay [8], greater than 100 µM in assay [10] and 72.7 µM in assay [9].
On to `CCc1ccc2oc(-c3cc(O)c(-c4nc5cc(CC)ccc5o4)cc3O)nc2c1`, for which the TGI in assay [1], in [2], in assay [3], in [4], in assay [8] and in assay [10] was greater than 100 µM in each case. The molecule also yielded a TGI in [11] greater than 100 µM.
As to `Nc1ccc2[nH]c3c(-c4ccccc4)nccc3c2c1`, the TGI in [1] was greater than 100 µM; in assay [2], greater than 100 µM; in assay [4] it was 22.8 µM; in assay [5], greater than 100 µM; in assay [6], greater than 100 µM; in [7], greater than 96.5 µM. The TGI in assay [8], in [10] and in assay [9] was greater than 100 µM in each case.
Consider `Cc1ccc2nc(Cl)c(/C=N/N3C(=O)/C(=C/c4ccccc4S)N=C3c3ccccc3)cc2c1`, for which the TGI is 49 µM in [1]; greater than 100 µM in assay [2]; 31.8 µM in [3]; 15.1 µM in [4]; 28.2 µM in [6]; greater than 100 µM in [8]. The TGI in assay [10], in assay [11] and in [9] was greater than 100 µM throughout.
As for `NCCN=C(Nc1ccccc1)Nc1ccccc1`, the TGI in assay [1], in [2], in assay [3], in assay [4], in assay [5] and in assay [6] was greater than 100 µM in each case. The TGI in [7], in [8], in assay [10] and in [9] was greater than 100 µM in each case.
Take `O=C1c2ccccc2C(=O)N1Cc1ccccc1-c1c2nc(c(-c3ccccc3CN3C(=O)c4ccccc4C3=O)c3ccc([nH]3)c(-c3ccccc3CN3C(=O)c4ccccc4C3=O)c3nc(c(-c4ccccc4CN4C(=O)c5ccccc5C4=O)c4ccc1[nH]4)C=C3)C=C2`: the TGI in assay [1], in assay [2], in [4], in assay [5], in assay [6] and in assay [7] was greater than 100 µM throughout. Further, the TGI in assay [8], in [10] and in assay [9] was greater than 100 µM each time.
As to `COc1ccc(O)cc1`, the TGI in assay [1], in [2], in [4], in assay [6], in [7] and in assay [8] was greater than 100 µM each time. In addition, the TGI in assay [10] and in assay [9] was greater than 100 µM throughout.
Turning to `NC1=NS(=O)(=O)Nc2nc(-c3ccc([N+](=O)[O-])cc3)[nH]c21`, the TGI in [1], in assay [2], in [4], in assay [5], in [6] and in assay [7] was greater than 100 µM throughout. The TGI in assay [8] and in [10] was greater than 100 µM each time.
As to `Cc1cn(C(Cc2ccccc2)OCCO)c(=O)[nH]c1=O` (stereo not drawn), the TGI in [1], in assay [2], in [3], in assay [4], in [6] and in assay [7] was greater than 100 µM in each case. The total growth inhibition concentration (TGI) in assay [8], in assay [11] and in assay [9] was greater than 100 µM in each case.
